The test deals with FAAH (Homo sapiens (Human), UniProt O00519). The test is described as follows: Assay Method 1: FAAH assay, T84 cell homogenate, 3H-anandamide hydrolysis. It counts as biochemical. The settings on record: 3H-AEA tracer 200 nM, 1 h at rt. How it is done:
T84 frozen pellets (contents of 1-4×15 cm culture dishes) were homogenized in 300 mL of FAAH assay buffer (125 mM Tris, 1 mM EDTA, 0.2% glycerol, 0.02% Triton X-100, 0.4 mM Hepes, pH 9). The assay mixture was prepared from 50 μL of the cell homogenate, 10 μL of the test compound, and 40 μL of anandamide [1-3H-ethanolamine] (^3H-AEA; Perkin-Elmer, 10.3 Ci/mmol), which was added last, for a final tracer concentration of 200 nM. The reaction mixture was incubated at rt for 1 hour (h). During the incubation, 96-well Multiscreen filter plates (catalog number MAFCNOB50; Millipore, Bedford, Mass., USA) were loaded with 25 μL of activated charcoal (Multiscreen column loader, catalog number MACL09625, Millipore) and washed once with 100 μL of MeOH. Also during the incubation, 96-well DYNEX MicroLite plates (catalog number NL510410) were loaded with 100 μL of MicroScint40 (catalog number 6013641, Packard Bioscience, Meriden, Conn., USA). After the 1 h incubation, 60 μL of the reaction mixture were transferred to the charcoal plates, which were then assembled on top of the DYNEX plates using Centrifuge Alignment Frames (catalog number MACF09604, Millipore). The unbound, labeled ethanolamine was centrifuged through to the bottom plate (5 min at 2000 rpm), which was preloaded with the scintillant, as described above. The plates were sealed and left at rt for 1 h before counting on a Hewlett Packard TopCount.
Chain of FAAH (O00519 whole entry): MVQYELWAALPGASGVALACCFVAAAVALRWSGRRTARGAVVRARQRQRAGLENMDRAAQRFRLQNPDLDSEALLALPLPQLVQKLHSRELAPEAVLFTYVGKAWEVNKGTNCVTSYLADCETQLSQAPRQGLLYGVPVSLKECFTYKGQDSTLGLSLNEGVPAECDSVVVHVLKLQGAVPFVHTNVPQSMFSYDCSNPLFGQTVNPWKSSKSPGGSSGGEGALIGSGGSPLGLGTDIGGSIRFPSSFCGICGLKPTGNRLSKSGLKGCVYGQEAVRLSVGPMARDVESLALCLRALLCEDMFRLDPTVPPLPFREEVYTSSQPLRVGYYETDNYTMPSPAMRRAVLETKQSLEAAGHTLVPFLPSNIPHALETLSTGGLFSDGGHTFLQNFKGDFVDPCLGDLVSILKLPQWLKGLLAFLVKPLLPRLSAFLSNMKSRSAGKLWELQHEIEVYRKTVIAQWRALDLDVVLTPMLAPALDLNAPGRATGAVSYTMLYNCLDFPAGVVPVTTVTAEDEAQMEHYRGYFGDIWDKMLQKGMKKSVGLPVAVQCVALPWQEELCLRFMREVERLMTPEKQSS
As for `CC(C)COc1ccc(CN2CCN(C(=O)Nc3ccccc3)CC2)cc1` [Example 124, 4-(4-Isobutoxy-benzyl)-piperazine-1-carboxylic acid phenylamide], the 50% inhibitory concentration (IC50) came out at 1.8 µM.

Turning to `O=C(Nc1ccccc1)N1CCN(Cc2cccc(Oc3cc(Cl)cc(Cl)c3)c2)CC1` [Example 78, 4-[3-(3,5-Dichloro-phenoxy)-benzyl]-piperazine-1-carboxylic acid phenylamide], the 50% inhibitory concentration (IC50) turned out to be 5 µM.

The compound `CN(C)CCOc1cccc(CN2CCN(C(=O)Nc3ccccc3)CC2)c1` [Example 125, 4-[3-(2-Dimethylamino-ethoxy)-benzyl]-piperazine-1-carboxylic acid phenylamide] displayed a concentration for half-maximal inhibition (IC50) of 10 µM.

For the compound `O=C(Nc1ccccc1)N1CCN(Cc2cccc(Oc3ccc4c(c3)OCO4)c2)CC1` [Example 136, 4-[3-(Benzo[1,3]dioxol-5-yloxy)-benzyl]-piperazine-1-carboxylic acid phenylamide], the IC50 came out at 0.067 µM.

In the case of `O=C(Nc1ccccc1)N1CCN(Cc2cc3ccccc3s2)CC1` [Example 20, 4-Benzo[b]thiophen-2-ylmethyl-piperazine-1-carboxylic acid phenylamide], the midpoint of inhibition, the IC50, lay at 0.019 µM.

The compound `O=C(Nc1ccccc1)N1CCC(Cc2ccccc2)CC1` [Example H, 4-Benzyl-piperidine-1-carboxylic acid phenylamide, reference compound] showed an IC50 of 0.27 µM.

As to `O=C(Nc1ccccc1)N1CCN(CCCc2ccccc2)CC1` [Example I, 4-(3-Phenyl-propyl)-piperazine-1-carboxylic acid phenylamide, reference compound], it took 1.7 µM to reach half-maximal inhibition (IC50).

Regarding `O=C(Nc1ccccc1)N1CCN(Cc2cc3ccccc3nc2Cl)CC1` [Example 56, 4-(2-Chloro-quinolin-3-ylmethyl)-piperazine-1-carboxylic acid phenylamide], the IC50 was 9 µM.

On to `COc1ccc(NC(=O)N2CCN(Cc3ccc(Br)c(Br)c3)CC2)cc1` [Example 90, 4-(3,4-Dibromo-benzyl)-piperazine-1-carboxylic acid (4-methoxy-phenyl)-amide], for which the midpoint of inhibition, the IC50, lay at 0.075 µM.

The compound `O=C(Nc1ccccc1)N1CCN(Cc2cccc(I)c2)CC1` [Example A, 4-(3-Iodo-benzyl)-piperazine-1-carboxylic acid phenylamide, reference compound] registered an IC50 of 0.12 µM.

With `O=C(Nc1ccccc1)N1CCN(Cc2ccccc2)CC1` [Example J, 4-Benzyl-piperazine-1-carboxylic acid phenylamide, reference compound], the IC50 was determined as 2 µM.

With `O=C(Nc1cccc(Cl)c1)N1CCN(Cc2cnc3ccccc3c2)CC1` [Example 100, 4-Quinolin-3-ylmethyl-piperazine-1-carboxylic acid (3-chloro-phenyl)-amide], it took 0.2 µM to reach half-maximal inhibition (IC50).

Compound `O=C(Nc1ccccc1)N1CCN(Cc2ccc(-c3ccccc3)cc2)CC1` [Example 49, 4-Biphenyl-4-ylmethyl-piperazine-1-carboxylic acid phenylamide] displayed an IC50 of 4.5 µM.

The compound `O=C(Nc1ccc(F)cc1)N1CCN(Cc2ccc3ccccc3n2)CC1` [Example 58, 4-Quinolin-2-ylmethyl-piperazine-1-carboxylic acid (4-fluoro-phenyl)-amide] returned an IC50 of 0.1 µM.

`O=C(Nc1ccccc1)N1CCN(Cc2ccncc2)CC1` [Example 45, 4-Pyridin-4-ylmethyl-piperazine-1-carboxylic acid phenylamide] returned a concentration for half-maximal inhibition (IC50) of more than 10 µM.

Regarding `COc1ccc(Oc2cccc(CN3CCN(C(=O)Nc4ccccc4)CC3)c2)cc1` [Example 65, 4-[3-(4-Methoxy-phenoxy)-benzyl]-piperazine-1-carboxylic acid phenylamide], 0.009 µM corresponded to half-maximal inhibition (IC50).

As to `Cc1cccc(NC(=O)N2CCN(Cc3cnc4ccccc4c3)CC2)c1` [Example 109, 4-Quinolin-3-ylmethyl-piperazine-1-carboxylic acid m-tolylamide], the IC50 was found to be 0.2 µM.

As for `O=C(Nc1ccccc1)N1CCN(Cc2cccnc2)CC1` [Example 47, 4-Pyridin-3-ylmethyl-piperazine-1-carboxylic acid phenylamide], the IC50 was more than 10 µM.

In the case of `O=C(Nc1ccccc1)N1CCN(Cc2cccc(Br)n2)CC1` [Example 71, 4-(6-Bromo-pyridin-2-ylmethyl)-piperazine-1-carboxylic acid phenylamide], the half-inhibitory concentration (IC50) was found to be 6 µM.

Compound `O=C(Nc1ccccc1)N1CCN(Cc2cccc(Oc3cc4ccccc4c4ccccc34)c2)CC1` [Example 132, 4-[3-(Phenanthren-9-yloxy)-benzyl]-piperazine-1-carboxylic acid phenylamide] came in with a 50% inhibitory concentration (IC50) of 3 µM.

`O=C(Nc1ccccc1)N1CCN(Cc2cccc(Oc3ccc(Cl)cc3)c2)CC1` [Example 60, 4-[3-(4-Chloro-phenoxy)-benzyl]-piperazine-1-carboxylic acid phenylamide] showed an IC50 of 0.009 µM.

In turn, `Cc1ccc(NC(=O)N2CCN(Cc3ccc(Br)c(Br)c3)CC2)cc1` [Example 94, 4-(3,4-Dibromo-benzyl)-piperazine-1-carboxylic acid p-tolylamide] had an IC50 of 0.47 µM.

Compound `O=C(Nc1ccc(Cl)cc1)N1CCN(Cc2cnc3ccccc3c2)CC1` [Example 101, 4-Quinolin-3-ylmethyl-piperazine-1-carboxylic acid (4-chloro-phenyl)-amide] returned an IC50 of 0.36 µM.

Regarding `CS(=O)(=O)c1ccc(Oc2cccc(CN3CCN(C(=O)Nc4ccccc4)CC3)c2)cc1` [Example 134, 4-[3-(4-Methanesulfonyl-phenoxy)-benzyl]-piperazine-1-carboxylic acid phenylamide], 0.065 µM corresponded to half-maximal inhibition (IC50).

For `O=C(Nc1ccccc1)N1CCN(Cc2ccc3cc[nH]c3c2)CC1` [Example 73, 4-(1H-Indol-6-ylmethyl)-piperazine-1-carboxylic acid phenylamide], the IC50 is 0.029 µM.

Regarding `CCCOc1ccc(CN2CCN(C(=O)Nc3ccccc3)CC2)cc1` [Example 123, 4-(4-Propoxy-benzyl)-piperazine-1-carboxylic acid phenylamide], 1.5 µM corresponded to half-maximal inhibition (IC50).

For the compound `O=C(Nc1ccccc1)N1CCN(Cc2ccc3c(c2)Cc2ccccc2-3)CC1` [Example 79, 4-(9H-Fluoren-2-ylmethyl)-piperazine-1-carboxylic acid phenylamide], half-maximal inhibition (IC50) required 8 µM.

For the compound `O=C(Nc1ccccc1)N1CCN(Cc2ccc3c(c2)CCC3)CC1` [Example 30, 4-Indan-5-ylmethyl-piperazine-1-carboxylic acid phenylamide], the IC50 turned out to be 0.18 µM.

In turn, `COc1ccc(NC(=O)N2CCN(Cc3cnc4ccccc4c3)CC2)cc1` [Example 108, 4-Quinolin-3-ylmethyl-piperazine-1-carboxylic acid (4-methoxy-phenyl)-amide] registered a 50% inhibitory concentration (IC50) of 0.27 µM.

`O=C(Nc1ccccc1)N1CCN(Cc2ccc3c(c2)CCO3)CC1` [Example 38, 4-(2,3-Dihydro-benzofuran-5-ylmethyl)-piperazine-1-carboxylic acid phenylamide] gave a half-inhibitory concentration (IC50) of 0.62 µM.

As for `O=C(Nc1ccccc1)N1CCN(Cc2cccc(OS(=O)(=O)c3ccc(Cl)cc3)c2)CC1` [Example 139, 4-Chloro-benzenesulfonic acid 3-(4-phenylcarbamoyl-piperazin-1-ylmethyl)-phenyl ester], half-maximal inhibition (IC50) was put at 0.38 µM.

As to `Cc1ccc(NC(=O)N2CCC(Cc3ccccc3)CC2)cc1` [Example 113, 4-Benzyl-piperidine-1-carboxylic acid p-tolylamide], the half-maximal inhibitory concentration (IC50) amounted to 8 µM.

Compound `CCc1ccc(CN2CCN(C(=O)Nc3ccccc3)CC2)cc1` [Example 33, 4-(4-Ethyl-benzyl)-piperazine-1-carboxylic acid phenylamide] showed an IC50 of 0.28 µM.

Turning to `CN(C)CCCOc1cccc(CN2CCN(C(=O)Nc3ccccc3)CC2)c1` [Example 127, 4-[3-(3-Dimethylamino-propoxy)-benzyl]-piperazine-1-carboxylic acid phenylamide], 2 µM corresponded to half-maximal inhibition (IC50).

Turning to `O=C(Nc1ccccc1)N1CCN(Cc2ccc(Oc3ccccc3)cc2)CC1` [Example 74, 4-(4-Phenoxy-benzyl)-piperazine-1-carboxylic acid phenylamide], the 50% inhibitory concentration (IC50) was determined as 2 µM.

The compound `Cc1ccccc1NC(=O)N1CCN(Cc2cnc3ccccc3c2)CC1` [Example 103, 4-Quinolin-3-ylmethyl-piperazine-1-carboxylic acid o-tolylamide] yielded an IC50 of 6 µM.

The compound `CC(C)(C)c1ccc(Oc2cccc(CN3CCN(C(=O)Nc4ccccc4)CC3)c2)cc1` [Example 63, 4-[3-(4-tert-Butyl-phenoxy)-benzyl]-piperazine-1-carboxylic acid phenylamide] had a half-maximal inhibitory concentration (IC50) of 0.069 µM.

In the case of `O=C(Nc1ccccc1)N1CCN(Cc2cccc3c2OCO3)CC1` [Example 51, 4-Benzo[1,3]dioxol-4-ylmethyl-piperazine-1-carboxylic acid phenylamide], the IC50 was determined as 6 µM.

The compound `O=C(Nc1ccccc1)N1CCN(Cc2ccc(OC3CCCCC3)cc2)CC1` [Example 119, 4-(4-Cyclohexyloxy-benzyl)-piperazine-1-carboxylic acid phenylamide] had an IC50 of 1 µM.

`O=C(Nc1ccccc1)N1CCN(Cc2ccnc3ccccc23)CC1` [Example 50, 4-Quinolin-4-ylmethyl-piperazine-1-carboxylic acid phenylamide] registered an IC50 of 3 µM.

Usually IC50 stands for the concentration at which inhibition is half-maximal. Low readings indicate greater potency in that assay, high ones weaker potency in that assay.
